Tests used:
[1] = target: tryptophanase of Bacteroides tetaiotaomicron (Bacteroides thetaiotaomicron, UniProt Q8A7N2); assay: Tryptophanase enzyme inhibitory activity (LDH-coupled NADH loss); assay type: biochemical; conditions: 10 mM L-tryptophan, 30 min preincubation at 37° C., absorbance at 340 nm
Protocol: Tryptophanase inhibitory activity was evaluated by a method using lactate dehydrogenase (LDH). The reaction time-dependent reduction in NADH conjugated with the enzymatic reaction, with LDH, of pyruvic acid produced through the enzymatic reaction of L-tryptophan as a substrate with tryptophanase, was measured with a spectrophotometer (Phillips-R S et al., Biochemistry, 23, 6228-6234 (1984)). Enzyme inhibitory activity obtained without adding a test compound (by adding DMSO alone) in the presence of tryptophanase was used as a control. As the enzyme, tryptophanase of Bacteroides tetaiotaomicron (Genbank accession number: HC914434.1) was used.
A test compound solution was prepared by dissolving each test compound in DMSO at concentrations (from 30 mM to 30 nM at 10-fold common ratio). LDH, NADH and L-tryptophan were dissolved, using distilled water, respectively to concentrations of 80 units/mL, 10 mM and 50 mM. Bacteroides tryptophanase was prepared to 30 mg/mL. A potassium phosphate buffer was used as the buffer.
A reaction solution A was dispensed at 284.8 μL per well into a 96-well plate, and the test compound solution was added at 3.2 μL per well to obtain a final concentration of 1/100 (reaction solution B). The reaction solution B was incubated at 37° C. for 30 minutes, L-tryptophan was added thereto at 32 μL per well to obtain a final concentration of […] (reaction solution C), and the enzyme reaction was performed at 37° C. over 30 minutes with absorbance at 340 nm measured for monitoring the NADH loss. Based on the NADH loss, the tryptophanase inhibitory activity of the compound was evaluated.

Bacteroides = assay: Indole production suppressing effect in viable bacterium; assay type: cell-based; conditions: 5 mM L-Tryptophan assay medium, anaerobic, indole in culture supernatant, read-out: Bacteroides Indole Production Inhibitory Activity(IC50)
Protocol: The effect of a tryptophanase inhibitory compound to suppress indole production from a viable bacterium can be evaluated through the following operation.
When E. coli (Eschelicia coli) is used as a strain known to produce indole, the strain is cultured in an LB medium at 37° C. for 12 to 18 hours under anaerobic conditions, and then, suspended in an assay medium (5 mM L-Tryptophan/PBS(+)/25 mM HEPES (pH8)) in such a manner as to obtain O.D. of about 0.3. When bacteroides is used, the strain is cultured in a modified GAM medium at 37° C. for 12 to 18 hours under anaerobic conditions, and then suspended in an assay medium (5 mM L-Tryptophan/PBS(+)/25 mM HEPES (pH8)) in such a manner as to obtain O.D. of about 1.1. The thus obtained viable bacterial suspension prepared to have a final concentration of a compound of 1 μM to 10 mM is dispensed at 200 μL per well into a 96-well plate and cultured at 37° C. for 2 to 4 hours under anaerobic conditions, O.D., an ATP concentration (that can be quantitatively determined by using BacTiter-Glo (Promega Corporation)) and an indole concentration in the culture supernatant (that can be quantitatively determined by utilizing Ehrlich reaction) are measured. The effect of the tryptophanase inhibitory compound to suppress indole production from a viable bacterium can be evaluated depending on the degree of lowering of the indole concentration in the culture supernatant. It can be checked whether or not the effect is derived from a function other than tryptophanase inhibition, such as a bactericidal function or a bacterial growth inhibitory function, depending on lowering of the O.D. or reduction in the ATP concentration or by performing a generally practiced antibacterial activity test (a MIC (minimum growth inhibition concentration) test) using levofloxacin or the like as a positive control.
The activities of inhibiting indole production of the compounds of the respective examples shown in Table 13 were measured by the above-described method using Bacteroides to evaluate the effect of inhibiting indole production.

plasma indoxyl sulfate = assay: Effect of reducing plasma indoxyl sulfate concentration in mice; assay type: in vivo; conditions: oral gavage, plasma 6 hours after L-tryptophan
Protocol: An effect of a tryptophanase inhibitory compound to reduce plasma indoxyl sulfate concentration in a mouse can be evaluated through the following operation.
After fasting male BALB/c mice overnight, a tryptophanase inhibitory compound dissolved or suspended at a concentration of 0.01 to 10 mg/mL in 0.5% methylcellulose (MC) solution used as a solvent and 0.5% MC solution are orally administered by gavage at a volume of 10 mL/kg respectively to test compound groups and to a solvent control group. 30 minutes after the administration of the test compound or the solvent, L-tryptophan, that is, a substrate of tryptophanase, is orally administered by gavage at a dose of 1 to 3 g/kg. The L-tryptophan is suspended in a 0.5% tragacanth solution. For 12 hours after the administration of the L-tryptophan, blood is collected over time from a tail vein by using a hematocrit tube. The thus obtained blood is centrifuged at 11,000 rpm for 5 minutes to collect plasma, and the indoxyl sulfate concentration in the plasma is measured singly by liquid chromatography (fluorescence detection) or its combination with a mass spectrometer used subsequently. Plasma indoxyl sulfate concentration in the test compound group against the plasma indoxyl sulfate concentration in the solvent control group is calculated as, for example, a ratio of the area under a curve of the indoxyl sulfate concentration, and thus, the efficacy of each compound in vivo can be compared.
The indoxyl sulfate concentrations in plasma obtained by using the compounds of the respective examples shown in Table 14 below were measured by the above-described method to evaluate the plasma indoxyl sulfate suppressing effect.

tryptophanase of Bacteroides tetaiotaomicron, sequence (Q8A7N2 entry or part of it, change not shown): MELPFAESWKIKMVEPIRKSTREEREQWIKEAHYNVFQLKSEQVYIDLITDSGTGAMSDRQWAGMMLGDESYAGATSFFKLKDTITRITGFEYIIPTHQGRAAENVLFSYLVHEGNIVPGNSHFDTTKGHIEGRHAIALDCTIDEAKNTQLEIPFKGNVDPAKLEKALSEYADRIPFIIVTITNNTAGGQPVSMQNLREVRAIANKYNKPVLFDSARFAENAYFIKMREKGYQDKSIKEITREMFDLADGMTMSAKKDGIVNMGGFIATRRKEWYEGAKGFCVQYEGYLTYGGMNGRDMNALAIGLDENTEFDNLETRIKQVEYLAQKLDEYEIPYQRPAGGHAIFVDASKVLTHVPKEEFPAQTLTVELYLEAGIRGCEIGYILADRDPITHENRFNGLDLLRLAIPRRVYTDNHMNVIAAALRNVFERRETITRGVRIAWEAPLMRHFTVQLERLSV

Compound | IC50 [1] [nM] | IC50 (Bacteroides) [nM] | Plasma Indoxyl Sulfate Reduction Effect in Male BALB/c Mouse (Indoxyl sulfate reduction effect in plasma 6 hours after administration of L-tryptophan: ED75-, mg/kg) (plasma indoxyl sulfate) [mg/kg]
CC[C@@](C)(NC(=O)c1cc(Br)c(N)cc1OC)C(=O)O [Compound of Example 15, (−)-N-(4-Amino-5-bromo-2-methoxybenzoyl)-D-isovaline] | 770 | < 3000 | 1
CCOc1cc(N)c(Br)cc1C(=O)N[C@](C)(CC)C(=O)O [Compound of Example 21, (−)-N-(4-Amino-5-bromo-2-ethoxybenzoyl)-D-isovaline] | 100 | < 3000 | 1
CCOc1cc(N)c(F)cc1C(=O)N[C@](C)(CC)C(=O)O [Compound of Example 23, (−)-N-(4-Amino-2-ethoxy-5-fluorobenzoyl)-D-isovaline] | 490 | < 3000 | 1
CCCOc1cc(N)c(F)cc1C(=O)N[C@](C)(CC)C(=O)O [Compound of Example 27, (−)-N-(4-Amino-5-fluoro-2-propoxybenzoyl)-D-isovaline] | 90 | < 3000 | 1

— US10925848B2, “Amide derivative” (Daiichi Sankyo Company, Limited, priority 2017, dated 2021)
